Assays:
APP and its fragments = assay: APP and fragments in hippocampus of APP/PS1 transgenic AD mice; assay type: in vivo
From the text: GAPDH and Synaptophysin were loading controls. FIG. 2 also includes a collection of graphs showing relative density of APP plotted against control and time after butanetap treatment; relative density of CTFβ plotted against control and time after butanetap treatment; relative density of CTFα plotted against control and time after butanetap treatment; Aβ42 levels in brain tissue plotted against control and time after butanetap treatment; and Aβ40 levels in brain tissue plotted against control and time after butanetap treatment. Finally, FIG. 2 also includes a Western blot showing levels of APP, NSB, CTFβ, and CTFα after butanetap treatment over time (minutes).

[1] = tested on: insoluble (aggregated) tau; assay: Tau in vivo, hTau mice, ELISA; conditions: in mouse chow, 6 weeks; three of the 4 ELISA assays, FIG. 4
Protocol: The cells were treated for 4 days with butanetap harvested, solubilized, and tested with antibodies against Tau and phospho-Tau. • B. FIG. 4, Tau in vivo. […] After 6 weeks, mice were killed and the total and insoluble (aggregated) tau was measured. […] Precipitated tau corresponds to tangles in the brain.

SMILES: CN1CC[C@]2(C)c3cc(OC(=O)Nc4ccccc4)ccc3N(C)C12 (stereo partly drawn) [butanetap, (3aR)-1,3a,8-trimethyl-1,2,3,3a,8,8a-hexahydropyrrolo[2,3-b]indol-5-yl phenylcarbamate]
- APP and its fragments (all related peptides) in hippocampus (APP and its fragments; FIG. 2): reduced
- duration of reduction of APP and related peptides after the last dose (APP and its fragments; hippocampus): at least 9 hours
- amount of insoluble tau [1]: significant reduction

From patent publication US12582632B2, “Inhibition of neurological injuries due to infections via administration of Butanetap and analogs thereof” (priority 2021, dated 2026)
